# Data from ChEMBL document CHEMBL4808243, “Harmine-inspired design and synthesis of benzo[d]imidazo[2,1-b]thiazole derivatives bearing 1,3,4-oxadiazole moiety as potential tumor suppressors” (Bioorg Med Chem, 2021).
# Activity calls are given as the source filed them. The rule behind the calls is not given here.
# What was measured:
# Type in all cases: functional, cell-based
# A549 [1] = test: Antiproliferative activity against human A549 cells assessed as inhibition of cell growth incubated for 72 hrs by MTT assay; conditions: A549, 72 h
# NCI-H2228 = test: Antiproliferative activity against human EML4-ALK positive H2228 cells assessed as inhibition of cell growth incubated for 72 hrs by MTT assay; conditions: NCI-H2228, 72 h
# A549 [2] = test: Inhibition of epithelial-mesenchymal transition in human A549 cells assessed as suppression of Twist 1 expression at 17 uM measured after 24 hrs by Western blot analysis
# A549 [3] = test: Induction of apoptosis in human A549 cells by flow cytometry analysis
# A549 [4] = test: Inhibition of epithelial-mesenchymal transition in human A549 cells assessed as suppression of Twist 1 expression measured after 24 hrs by Western blot analysis; conditions: dose 0.5-2 µM
IC50 (A549 [1]) [µM],IC50 (NCI-H2228) [µM],SMILES,Activity (A549 [2]),Activity (A549 [3]),Activity (A549 [4])
13.7,21.8,CCCN1CCN(Cc2nnc(-c3c(C)nc4sc5ccccc5n34)o2)CC1,–,–,–
3.92,17.4,Cc1nc2sc3ccccc3n2c1-c1nnc(CNC2CCCC2)o1,–,–,–
6.95,14,Cc1nc2sc3ccccc3n2c1-c1nnc(CCN2CCN(CCO)CC2)o1,–,–,–
11.9,19,Cc1nc2sc3ccccc3n2c1-c1nnc(CCN(C)C)o1,–,–,–
12.3,27.2,Cc1nc2sc3ccccc3n2c1-c1nnc(CN2CC(O)C2)o1,–,–,–
12.2,23.5,Cc1nc2sc3ccccc3n2c1-c1nnc(CCN2CCCC2)o1,–,–,–
4.41,14.9,Cc1nc2sc3ccccc3n2c1-c1nnc(CN2CCN(CCO)CC2)o1,–,–,–
10.7,21.6,CCN(CC)Cc1nnc(-c2c(C)nc3sc4ccccc4n23)o1,–,–,–
7.7,26.5,Cc1nc2sc3ccccc3n2c1-c1nnc(CN2CCCC2)o1,–,–,–
15,18.6,Cc1nc2sc3ccccc3n2c1-c1nnc(CCNC2CCCC2)o1,–,–,–
12.8,23.1,Cc1nc2sc3ccccc3n2c1-c1nnc(CN2CCC(C)CC2)o1,–,–,–
8.46,17.8,Cc1nc2sc3ccccc3n2c1-c1nnc(CNCCO)o1,–,–,–
9.55,23.9,CCN(CC)CCc1nnc(-c2c(C)nc3sc4ccccc4n23)o1,–,–,–
7.66,15.4,Cc1nc2sc3ccccc3n2c1-c1nnc(CCN2CCC(O)CC2)o1,–,–,–
2.03,9.8,Cc1nc2sc3ccccc3n2c1-c1nnc(CCN2CCCCC2)o1,–,inactive,Dose-Dependent Effect
9.26,15.3,Cc1nc2sc3ccccc3n2c1-c1nnc(CN(C)C)o1,–,–,–
10.7,16.5,Cc1nc2sc3ccccc3n2c1-c1nnc(CCNCCO)o1,–,–,–
9.63,22.5,Cc1nc2sc3ccccc3n2c1-c1nnc(CCN2CC(O)C2)o1,–,–,–
2.38,13.4,Cc1nc2sc3ccccc3n2c1-c1nnc(CCN2CCC(C)CC2)o1,–,–,–
15,12.2,Cc1nc2sc3ccccc3n2c1-c1nnc(CN2CCC(O)CC2)o1,–,–,–
15.1,19.2,Cc1nc2sc3ccccc3n2c1-c1nnc(CN2CCCCC2)o1,–,–,–
11.1,22.2,CCCN1CCN(CCc2nnc(-c3c(C)nc4sc5ccccc5n34)o2)CC1,–,–,–

SMILES,IC50 (A549 [1]) [µM],IC50 (NCI-H2228) [µM],Activity (A549 [2]),Activity (A549 [3]),Activity (A549 [4])
COc1ccc2c(c1)[nH]c1c(C)nccc12 [HARMINE],17.1,31.1,Active,–,–
